In PubChem BioAssay (NCI):
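Following 48 hours of exposure in 96-well plates, responses at five concentrations were used to interpolate endpoints linearly. TGI denotes the concentration required for complete inhibition of growth.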

Experiments:
Experiment in all cases: DTP human tumour cell line panel, 48 h
[1] = test system: COLO 205 colon
[2] = test system: EKVX NSCLC
[3] = test system: HS 578T breast
[4] = test system: IGROV1 ovarian
[5] = test system: NCI-H460 lung
[6] = test system: SF-539 CNS
[7] = test system: SN12C renal
[8] = test system: SNB-19 CNS
[9] = test system: TK-10 renal
[10] = test system: CCRF-CEM leukemia

SMILES: CN(C)CCCNc1cc(O)c2c(c1O)C(=O)c1ccccc1C2=O
- TGI [1]: 24.5 µM
- TGI [2]: 31.1 µM
- TGI [3]: 50.2 µM
- TGI [4]: 24.6 µM
- TGI [5]: 19.4 µM
- TGI [6]: 26.7 µM
- TGI [7]: 16.5 µM
- TGI [8]: 21.8 µM
- TGI [9]: 22.1 µM

SMILES: Clc1ccc(OCc2nnc(COc3ccc(OCc4nnc(COc5ccc(Cl)cc5Cl)o4)c(Cl)c3)o2)c(Cl)c1
- TGI [10]: 38.5 µM
- TGI [1]: 74.9 µM
- TGI [2]: 45.2 µM
- TGI [3]: > 100 µM
- TGI [4]: 38.1 µM
- TGI [5]: > 100 µM
- TGI [7]: > 100 µM
- TGI [8]: > 100 µM
- TGI [9]: > 100 µM

SMILES: O=c1c(-c2ccccc2)c(SCCN2CCCCCC2)n(-c2ccccc2)c(=S)n1-c1ccccc1
- TGI [10]: 29.4 µM
- TGI [1]: > 100 µM
- TGI [2]: 35.7 µM
- TGI [3]: > 100 µM
- TGI [4]: > 100 µM
- TGI [5]: > 100 µM
- TGI [6]: > 100 µM
- TGI [9]: > 100 µM

SMILES: CCCO/N=[N+](\[O-])N(CC)CC
- TGI [10]: > 100 µM
- TGI [2]: > 100 µM
- TGI [4]: > 100 µM
- TGI [5]: > 100 µM
- TGI [6]: > 100 µM
- TGI [7]: > 100 µM
- TGI [8]: > 100 µM
- TGI [9]: > 100 µM

SMILES: COC(=O)C1=C(C)NC(C)=C(C(=O)OC)C1c1cccc(N=O)c1
- TGI [10]: > 100 µM
- TGI [1]: 32.6 µM
- TGI [2]: 36 µM
- TGI [4]: 30.6 µM
- TGI [5]: 31 µM
- TGI [6]: 33.5 µM
- TGI [7]: 33.3 µM
- TGI [8]: > 100 µM
- TGI [9]: 28.2 µM

SMILES: COc1cc2[nH]c(=O)c3cc(-c4ccccc4)cc4c(Cl)nc(c1OC)c2c43
- TGI [10]: > 67 µM
- TGI [1]: 38.5 µM
- TGI [2]: 64 µM
- TGI [3]: > 100 µM
- TGI [4]: > 91 µM
- TGI [5]: > 82.9 µM
- TGI [7]: > 100 µM
- TGI [8]: > 82.8 µM
- TGI [9]: > 70 µM

SMILES: Cn1c2c(c3ccccc31)CCN1C(=O)C34CCCC3CC21S4 (stereo not drawn)
- TGI [1]: > 100 µM
- TGI [2]: > 100 µM
- TGI [3]: > 100 µM
- TGI [4]: > 100 µM
- TGI [6]: > 100 µM
- TGI [7]: > 100 µM
- TGI [8]: > 100 µM
- TGI [9]: > 100 µM

SMILES: COCC#C[C@@]1(O)CCCCC1CC(OC)OC (stereo partly drawn)
- TGI [10]: > 100 µM
- TGI [1]: > 100 µM
- TGI [2]: > 100 µM
- TGI [3]: > 100 µM
- TGI [4]: > 100 µM
- TGI [5]: > 100 µM
- TGI [7]: > 100 µM
- TGI [8]: > 100 µM
- TGI [9]: > 100 µM

SMILES: CCC(=O)Nc1ccc(NS(=O)(=O)c2ccc(Cl)cc2)cc1
- TGI [10]: > 100 µM
- TGI [1]: > 100 µM
- TGI [2]: > 100 µM
- TGI [3]: > 100 µM
- TGI [4]: > 100 µM
- TGI [5]: > 100 µM
- TGI [6]: > 100 µM
- TGI [7]: > 100 µM
- TGI [8]: > 100 µM

SMILES: C=C(C)[C@H]1CC(=O)/C(C)=C\CC/C(C)=C/CC[C@@]2(C)O[C@@H]2C1
- TGI [10]: > 100 µM
- TGI [1]: 32 µM
- TGI [3]: > 100 µM
- TGI [4]: > 100 µM
- TGI [5]: 33.1 µM
- TGI [6]: 42.2 µM
- TGI [7]: 42.7 µM
- TGI [8]: > 100 µM
- TGI [9]: 76.5 µM

SMILES: NCCN(CCN(C(=O)Nc1ccccc1)c1ccccc1)C(=O)Nc1ccccc1
- TGI [10]: > 100 µM
- TGI [1]: 67.4 µM
- TGI [2]: 67.3 µM
- TGI [3]: 56 µM
- TGI [4]: 36.7 µM
- TGI [5]: 42.8 µM
- TGI [7]: 69.7 µM
- TGI [8]: > 100 µM
- TGI [9]: 60.3 µM

SMILES: COc1cccc(N2C(=O)CS(=O)(=O)C2c2cccc(Oc3ccccc3)c2)c1 (stereo not drawn)
- TGI [10]: > 100 µM
- TGI [1]: 42.4 µM
- TGI [2]: 59.3 µM
- TGI [3]: 70 µM
- TGI [5]: 31.1 µM
- TGI [6]: 38.4 µM
- TGI [7]: 38.2 µM
- TGI [8]: > 100 µM
- TGI [9]: 47.4 µM

SMILES: Nc1c(S(N)(=O)=O)cc(S(N)(=O)=O)cc1S(N)(=O)=O
- TGI [1]: > 100 µM
- TGI [2]: > 100 µM
- TGI [3]: > 100 µM
- TGI [4]: > 100 µM
- TGI [5]: > 100 µM
- TGI [7]: > 100 µM
- TGI [8]: > 100 µM
- TGI [9]: > 100 µM

SMILES: Cc1ccc(C(=O)Cc2nc3c([nH]c2=O)c(C)nn3-c2ccccc2)c(C)c1
- TGI [10]: > 10 µM
- TGI [1]: > 10 µM
- TGI [3]: > 10 µM
- TGI [4]: > 10 µM
- TGI [6]: > 10 µM
- TGI [7]: > 10 µM
- TGI [8]: > 10 µM
- TGI [9]: > 10 µM

SMILES: CCOC(=O)Cn1nnc2cc(Nc3c(C)[n+]([O-])c4cc(F)c(OCC)cc4[n+]3[O-])ccc21
- TGI [10]: > 100 µM
- TGI [2]: > 100 µM
- TGI [3]: > 100 µM
- TGI [4]: > 100 µM
- TGI [5]: > 100 µM
- TGI [6]: > 100 µM
- TGI [9]: 64.4 µM

SMILES: COC(=O)C1=C(C(=O)OC)SC(=C2SC3=C(SC(=C4SCCS4)S3)S2)S1
- TGI [10]: > 100 µM
- TGI [1]: > 100 µM
- TGI [2]: > 100 µM
- TGI [3]: > 100 µM
- TGI [4]: > 100 µM
- TGI [7]: > 100 µM
- TGI [8]: > 100 µM
- TGI [9]: > 100 µM

SMILES: O=C(O)C1=NN(c2ccc(S(=O)(=O)O)cc2)C2(C1)C(Cl)C(=O)N2c1nc2ccccc2s1 (stereo not drawn)
- TGI [1]: 35.1 µM
- TGI [2]: 34.3 µM
- TGI [3]: > 100 µM
- TGI [4]: 21.5 µM
- TGI [5]: 33.2 µM
- TGI [6]: 12.6 µM
- TGI [7]: 43.7 µM
- TGI [8]: 64.8 µM
- TGI [9]: 33.2 µM

SMILES: CC1CCc2sc3nc4n(c(=O)c3c2C1)CC(C)S4 (stereo not drawn)
- TGI [1]: 39.3 µM
- TGI [2]: 70.4 µM
- TGI [3]: > 100 µM
- TGI [4]: > 100 µM
- TGI [5]: 65.2 µM
- TGI [7]: 53.7 µM
- TGI [8]: 88.6 µM
- TGI [9]: 98.7 µM

SMILES: Cc1cnc2[nH]c(-c3cccc(F)c3)cc(=O)c2c1
- TGI [1]: 0.0582 µM
- TGI [2]: > 100 µM
- TGI [3]: 0.0448 µM
- TGI [4]: > 100 µM
- TGI [6]: 0.263 µM
- TGI [7]: > 100 µM

SMILES: COc1ccc(C2=C(Cl)C(=O)O/C2=C\c2ccc(OC)c(Br)c2)cc1Cl
- TGI [10]: 79.2 µM
- TGI [1]: > 100 µM
- TGI [2]: 90.8 µM
- TGI [3]: > 100 µM
- TGI [4]: > 100 µM
- TGI [5]: > 100 µM
- TGI [6]: 30.6 µM
- TGI [8]: 80.6 µM
- TGI [9]: 38.3 µM

SMILES: CC(=O)OC1CC2(O)C(CCC3(C)C(c4ccc(=O)oc4)CCC32O)C2(C)C1=CC(O)C1OC12 (stereo not drawn)
- TGI [10]: 0.487 µM
- TGI [1]: 0.354 µM
- TGI [2]: 0.157 µM
- TGI [4]: 0.753 µM
- TGI [5]: 0.0466 µM
- TGI [6]: 0.116 µM
- TGI [7]: 0.882 µM
- TGI [8]: 0.461 µM

SMILES: CCCCCCCCCCCCOCCOCCOCCOCCOCCOCC(=O)NC(Cc1ccccc1)C(=O)Oc1ccc([N+](=O)[O-])cc1 (stereo not drawn)
- TGI [10]: > 100 µM
- TGI [1]: 35.9 µM
- TGI [2]: > 100 µM
- TGI [3]: > 100 µM
- TGI [4]: > 100 µM
- TGI [5]: > 100 µM
- TGI [6]: > 100 µM
- TGI [8]: > 100 µM
- TGI [9]: > 100 µM

SMILES: C[C@H](c1ccccc1)N1C(=O)[C@@H](OCc2ccccc2)[C@H]1[C@H](COC(=O)COCc1ccccc1)OCc1ccccc1
- TGI [10]: > 100 µM
- TGI [1]: > 100 µM
- TGI [2]: > 100 µM
- TGI [3]: > 100 µM
- TGI [4]: > 100 µM
- TGI [7]: > 100 µM
- TGI [8]: > 100 µM
- TGI [9]: > 100 µM
